Measurements taken from US11969402B2, “Compositions and methods for skin rejuvenation” (THE JOHNS HOPKINS UNIVERSITY, priority 2019, dated 2024).

Legend:
wound beds = assay: Immunostaining of healing wounds; format: in vivo, mouse; conditions: Tlr3−/− mice
Method: Wound Induced Hair Neogenesis (WIHN). All experiments were followed with the present inventors' WIHN protocol^1,9. Briefly, hair was shaved and a 1.2 cm^2 full-thickness skin on the backs of 21-day old (telogen) male and female mice was removed by sterile scissors. A single treatment of RA (30 μl) (0.1 μg per mouse) (Millipore Sigma, R2625) and BMS493 (30 μl) (0.1 μg per mouse) (Cayman Chemical, #17418) was applied topically onto open wound on WD1 of Tlr3^−/− and WT mice, respectively. Poly (I:C) (50 μl) (5 μg per mouse) (Invivogen, tlrl-pic) was injected under the healed scab on WD3 of WT mice as described before^9,34. On WD20-24, numbers of regenerated hair follicles were visualized and quantified in the re-epithelialized skin by non-invasive confocal scanning laser microscopy (CSLM) (Caliber I.D., VIVASCOPE 1500) as published^1,9. As a vehicle (Control), ethanol (EtOH), dimethylsulfoxide (DMSO), or PBS was treated for RA, BMS493, and Poly (I:C), respectively.
Immunofluorescence. […] Fluorescence images were observed by fluorescence microscopy (Leica microsystems), taken pictures with ×100 (low magnification) and ×200 (high magnification), and saved as image files.

[1] = system: wound tissues of Tlr3−/− mice; assay: Microarray gene ontology analysis of wound tissue; format: in vivo, mouse; conditions: Tlr3−/− mice treated with RA
From the text: (§1) Microarray analysis. RNA isolated from keratinocytes with or without Poly (I:C) (GSE92646) and mouse wound tissues from wild type (C57BL/6NJ) and Tlr3^−/− with BMS493 and RA were submitted to the JHMI Deep Sequencing & Microarray core for Affymetrix® Human Exon 1.0ST and mouse microarray chip according to manufacturer's protocols. Raw gene expression signals in the form of Affymetrix CEL files were extracted and normalized with Partek® Genomics Suite™ software using the Robust Multichip Analysis (RMA) algorithm. Genes were ranked according to fold change of the intervention, and referred to as top or bottom induced if they are at the highest fold change (top) or lowest fold change (bottom). The significance of gene expression was measured by student's t-test analysis. These datasets generated during the current study are available in the NCBI GEO repository as listed above.

[2] = system: normal human keratinocytes; assay: Transcriptome and proteome comparison of keratinocytes treated with Poly (I:C) or RA; format: cell-based; conditions: for identical gene transcripts inhibited by Poly (I:C) and RA: overlap of top ranked 100 downregulated transcripts; for identical gene transcripts induced by Poly (I:C) and RA: overlap of top ranked 100 upregulated transcripts; for overlap of inhibited proteins between Poly (I:C) and RA: top ranked 100 downregulated proteins; for overlap of induced proteins between Poly (I:C) and RA: top ranked 100 upregulated proteins
From the text: as §1
Proteomic analysis. For in vivo samples, wild-type and Tlr3^−/− unwounded and wounded skin where wound regions (center and edge area) were prepared for analysis. For in vitro samples, human primary scalp keratinocytes treated with 0.1 μM retinoic acid (RA) or 0.5 μg per ml Poly (I:C) and control were used. In vivo and in vitro samples were lysed in 5% sodium deoxycholate after washing in phosphate-buffered saline. Lysates were washed, reduced, alkylated and trypsinolyzed on filter as described by Wisniewski et al.^35 and Erde et al.^36. Tryptic peptides were separated on a nanoACQUITY UPLC analytical column (BEH130 C18, 1.7 μm, 75 μm×200 mm, Waters) over a 165 min linear acetonitrile gradient (3-40%) with 0.1% formic acid on a Waters nano-ACQUITY UPLC system, and analyzed on a coupled Thermo Scientific Orbitrap Fusion Tribrid mass spectrometer as described by Williamson et al.^37. Full scans were acquired at a resolution of 120,000, and precursors were selected for fragmentation by higher-energy collisional dissociation (normalized collision energy at 30%) for a maximum 3-second cycle. Tandem mass spectra were searched against a UniProt human reference proteome using MS Amanda algorithm described by Dorfer et al.^38 with a maximum precursor mass error tolerance of 10 ppm. Carbamidomethylation of cysteine and deamidation of asparagine and glutamine were treated as static and dynamic modifications, respectively. Resulting hits were validated at a maximum false discovery rate of 0.01 using a semi-supervised machine learning algorithm Percolator developed by Käll et al.^39. Protein abundance ratios were measured by comparing the MS1 peak volumes of peptide ions, whose identities were confirmed by MS2 sequencing as described above. The Label-free quantifications were performed using an aligned AMRT (Accurate Mass and Retention Time) cluster quantification algorithm Minora (Thermo Fisher Scientific, 2017). Pathway and gene ontology analysis were performed with Qiagen Ingenuity, Panther GO and DAVID databases, as described by Kramer et al.^40, Mi et al.^41, and Huang et al.^42, respectively.

| Compound | Krt15 immunostaining in wounds (wound beds) | gene ontology categories in microarray analysis [1] | identical gene transcripts inhibited by Poly (I:C) and RA [2] | identical gene transcripts induced by Poly (I:C) and RA [2] | overlap of inhibited proteins between Poly (I:C) and RA [2] | overlap of induced proteins between Poly (I:C) and RA [2] |
| --- | --- | --- | --- | --- | --- | --- |
| CC1=C(/C=C/C(C)=C/C=C/C(C)=C/C(=O)O)C(C)(C)CCC1 [RA, all-trans-retinoic acid] | induces prominent Krt15 | substantial enrichment of gene ontology categories pertaining to development and morphogenesis | 18% | 13% | 36% | 61% |
| Polyinosinic-polycytidylic acid [Poly (I:C)] | – | – | 18% | 13% | 36% | 61% |
